The values below are quoted from earlier work in patent publication US20160128340A1, “Pest control formulation composed of Beauveria bassiana, Cold Pressed Neem Oil and Refined Pyrethrum Extract, and methods of making and using same” (priority 2014, published 2016).

Molecules are shown by their SMILES.

The subject of this data set is Bemisia tabaci. The settings on record: Bemisia tabaci population collected in a floriculture greenhouse.

Take `Cc1c(COC(=O)[C@@H]2[C@H](/C=C(\Cl)C(F)(F)F)C2(C)C)cccc1-c1ccccc1` (racemic) [bifenthrin]: the “resistance factor at LC50” value is given as 23 fold.

On to `CC1(C)C(C=C(Cl)Cl)C1C(=O)OC(C#N)c1cccc(Oc2ccccc2)c1` (stereo not drawn) [α-cypermethrin], for which the “resistance factor at LC50” value is reported as 80 fold.

Consider `O=[N+]([O-])NC1=NCCN1Cc1ccc(Cl)nc1` [imidacloprid], for which the “resistance factor at LC50” value is on record as 730 fold.

`CCN(CC)c1nc(C)cc(OP(=S)(OC)OC)n1` [pirimiphos-methyl]: the “resistance factor at LC50” value was 18 fold.
